Results on 6 molecules are retold here after patent US4743619A, “Method of treating hepatitis” (American Home Products Corporation, priority 1986, dated 1988).

This assay addresses T1, polymerase of hepatitis B virus (Hepatitis B virus genotype D subtype ayw, UniProt P03156).
T1 construct: the Dane particles were isolated from HBV-infected human blood; from tissue; host or cells: Dane particles (HBV virions) isolated from HBV-infected human blood
Kind of assay: in vitro endogenous DNA polymerase assay (Dane particles, radioactive nucleotide incorporation into viral DNA). It is filed as biochemical. To be noted: for inhibition at 0.01 µg/mL: 0.01 μg/ml; for inhibition at 0.01 µg/mL / inhibition at 0.1 µg/mL: 37° C., 2 hours, Dane particle DNA polymerase; for inhibition at 0.1 µg/mL: 0.1 μg/ml; for inhibition of the polymerase of hepatitis B virus (in words): according to the endogenous DNA polymerase procedure. As for the experimental part:
Ten microliters of Dane particles were incubated at 37° C. for 2 hours in 100 μl containing 0.5% NP40, 0.07% BME, 66 mM Tris HCl (pH 7.6) 27 mM MgCl2, 0.40 mM NH4 Cl, 0.3 mM dATP, dGTP, and dTTP and 4 picomoles α^32 P-dCTP. The appropriate tubes also contained either 0.1 μg/ml or 0.01 μg/ml of the rifamycin derivatives (a), (b), (c), (d), or (e). The quantity of incorporation of radioactive nucleotides into viral DNA was determined by trichloroacetic acid precipitation as described by Landers et al., J. Virol. 23: 368-376, 1977. The control DNA polymerase reaction contained more than 20,000 cpm.

T1 sequence (P03156 whole entry): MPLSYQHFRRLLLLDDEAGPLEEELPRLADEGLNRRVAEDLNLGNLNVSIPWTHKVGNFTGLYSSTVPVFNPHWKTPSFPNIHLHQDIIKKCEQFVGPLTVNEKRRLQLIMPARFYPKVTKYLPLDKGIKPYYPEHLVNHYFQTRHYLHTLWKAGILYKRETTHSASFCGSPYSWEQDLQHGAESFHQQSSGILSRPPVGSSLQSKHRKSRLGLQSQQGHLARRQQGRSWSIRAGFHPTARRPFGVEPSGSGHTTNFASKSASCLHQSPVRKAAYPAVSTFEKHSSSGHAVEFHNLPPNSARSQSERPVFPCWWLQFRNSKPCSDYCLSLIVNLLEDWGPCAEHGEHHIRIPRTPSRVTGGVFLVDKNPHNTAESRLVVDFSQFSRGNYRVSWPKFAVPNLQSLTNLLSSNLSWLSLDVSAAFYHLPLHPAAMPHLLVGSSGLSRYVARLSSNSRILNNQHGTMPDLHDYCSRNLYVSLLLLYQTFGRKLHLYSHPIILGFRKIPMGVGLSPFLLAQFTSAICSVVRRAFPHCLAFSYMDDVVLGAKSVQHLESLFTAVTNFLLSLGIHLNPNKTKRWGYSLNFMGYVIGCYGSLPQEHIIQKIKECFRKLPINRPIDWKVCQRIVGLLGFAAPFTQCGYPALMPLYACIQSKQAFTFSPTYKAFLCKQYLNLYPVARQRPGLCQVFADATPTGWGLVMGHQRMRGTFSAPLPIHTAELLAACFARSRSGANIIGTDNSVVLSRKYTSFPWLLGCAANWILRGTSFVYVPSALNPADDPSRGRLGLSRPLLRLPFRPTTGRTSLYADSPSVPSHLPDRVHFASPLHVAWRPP

As for `COC1C=COC2(C)Oc3c(C)c(O)c4c(O)c(c5c(c4c3C2=O)N(S(C)(=O)=O)C(C)N5)NC(=O)C(C)=CC=CC(C)C(O)C(C)C(O)C(C)C(OC(C)=O)C1C` (centres unmarked) [(f), 4-deoxo-N,3-ethylidenimino-4-(methylsulfonyl)amino rifamycin SV], the inhibition (in general, the relative decrease from the control value, in per cent) at 0.01 µg/mL turned out to be 23.8%; the inhibition at 0.1 µg/mL was determined as 84.6%; the “inhibition of the polymerase of hepatitis B virus (in words)” value (shortened to “inhibition of the polymerase … (in words)”) is recorded as “inhibit the polymerase of hepatitis B virus”.
For `CO[C@H]1/C=C/O[C@@]2(C)Oc3c(C)c(O)c4c(O)c(c(C=NN(C)C)c(OS(=O)(=O)CCCc5ccccc5)c4c3C2=O)NC(=O)/C(C)=C\C=C\[C@H](C)[C@H](O)[C@@H](C)[C@@H](O)[C@@H](C)[C@H](OC(C)=O)[C@@H]1C` [(e), 3-[(dimethylhydrazono)methyl]-4-O-[(3-phenylpropyl)sulfonyl]-rifamycin SV] the same measures were 25.1%, 85.6% and “inhibit the polymerase of hepatitis B virus”.
Take `CO[C@H]1/C=C/O[C@@]2(C)Oc3c(C)c(O)c4c(c3C2=O)C(=N)C(N)=C(NC(=O)/C(C)=C\C=C\[C@H](C)[C@H](O)[C@@H](C)[C@@H](O)[C@@H](C)[C@H](OC(C)=O)[C@@H]1C)C4=O` [(a), 3-amino-4-deoxo-4-imino-rifamycin S]: the inhibition at 0.01 µg/mL worked out at 17.2% and the inhibition at 0.1 µg/mL is 54.1%.
Consider `CCCCS(=O)(=O)Oc1c(C=NN2CCCCC2)c2c(O)c3c(O)c(C)c4c(c13)C(=O)[C@@](C)(O/C=C/[C@H](OC)[C@@H](C)[C@@H](OC(C)=O)[C@H](C)[C@H](O)[C@H](C)[C@@H](O)[C@@H](C)/C=C/C=C(/C)C(=O)N2)O4` [(c), 4-O-(n-butylsulfonyl)-3-[(1-piperidinylimino)methyl]-rifamycin SV], for which the inhibition at 0.01 µg/mL amounted to 8.3%, the inhibition at 0.1 µg/mL was found to be 55.7% and the “inhibition of the polymerase … (in words)” value is reported as “inhibit the polymerase of hepatitis B virus”.
For `CCCCS(=O)(=O)Oc1c(C=NN2CCOCC2)c2c(O)c3c(O)c(C)c4c(c13)C(=O)[C@@](C)(O/C=C/[C@H](OC)[C@@H](C)[C@@H](OC(C)=O)[C@H](C)[C@H](O)[C@H](C)[C@@H](O)[C@@H](C)/C=C/C=C(/C)C(=O)N2)O4` [(d), 4-O-(n-butylsulfonyl)-3-[(4-morpholinylimino)methyl]-rifamycin SV] the same measures were 10.2%, 92.5% and “inhibit the polymerase of hepatitis B virus”.
For the molecule `CO[C@H]1/C=C/O[C@@]2(C)Oc3c(C)c(O)c4c(O)c(c(N)c(NS(=O)(=O)c5ccc(N)cc5)c4c3C2=O)NC(=O)/C(C)=C\C=C\[C@H](C)[C@H](O)[C@@H](C)[C@@H](O)[C@@H](C)[C@H](OC(C)=O)[C@@H]1C` [(b), 3-amino-4-deoxo-4-[(4-aminophenyl)sulfonyl]amino-rifamycin SV], the inhibition at 0.01 µg/mL came to 10%, the inhibition at 0.1 µg/mL was 89% and the “inhibition of the polymerase … (in words)” value is on record as “inhibit the polymerase of hepatitis B virus”.
